Data as given in patent publication US20250127768A1, “THERAPEUTIC TARGETING OF INOSITOL PYROPHOSPHATE SYNTHESIS IN CANCER” (The Broad Institute, Inc., priority 2022, published 2025).

Assays:
[1] = test system: XPR1-dependent cell lines (RMGI); experiment: phosphate efflux in ovarian cancer cell line (FIG. 6A); type: cell-based; details: as compared to RBD (protein inhibitor of XPR1)
Source text: (§1) FIG. 6A-FIG. 6B—IP6K inhibitors. FIG. 6A. Graph showing phosphate efflux in an ovarian cancer cell line treated with TNP or RBD_00. FIG. 6B. Graph showing cell viability in an ovarian cancer cell line treated with TNP or RBD_00 and the indicated CRISPR guide sequences.

[2] = test system: ovarian cancer cell line; experiment: cell viability in ovarian cancer cell line with CRISPR guide sequences (FIG. 6B); type: cell-based; details: high doses; specificity to XPR1-dependent cell lines
Source text: as §1

SMILES: O=[N+]([O-])c1ccc(CNc2nc(NCc3cccc(C(F)(F)F)c3)nc3nc[nH]c23)cc1 [TNP, N2-(m-(trifluoromethyl)benzyl) N6-(p-nitrobenzyl)purine]
- phosphate efflux [1]: did not observe a decrease in phosphate efflux
- proliferation effects [2]: Proliferation effects were observed at high doses of TNP, but the effects were not specific to XPR1-dependent cell lines
